For one test, the target named is T1, human Topo I (Homo sapiens, UniProt P11387).
T1 construct: gene TOP1
T1 sequence (P11387 2-765): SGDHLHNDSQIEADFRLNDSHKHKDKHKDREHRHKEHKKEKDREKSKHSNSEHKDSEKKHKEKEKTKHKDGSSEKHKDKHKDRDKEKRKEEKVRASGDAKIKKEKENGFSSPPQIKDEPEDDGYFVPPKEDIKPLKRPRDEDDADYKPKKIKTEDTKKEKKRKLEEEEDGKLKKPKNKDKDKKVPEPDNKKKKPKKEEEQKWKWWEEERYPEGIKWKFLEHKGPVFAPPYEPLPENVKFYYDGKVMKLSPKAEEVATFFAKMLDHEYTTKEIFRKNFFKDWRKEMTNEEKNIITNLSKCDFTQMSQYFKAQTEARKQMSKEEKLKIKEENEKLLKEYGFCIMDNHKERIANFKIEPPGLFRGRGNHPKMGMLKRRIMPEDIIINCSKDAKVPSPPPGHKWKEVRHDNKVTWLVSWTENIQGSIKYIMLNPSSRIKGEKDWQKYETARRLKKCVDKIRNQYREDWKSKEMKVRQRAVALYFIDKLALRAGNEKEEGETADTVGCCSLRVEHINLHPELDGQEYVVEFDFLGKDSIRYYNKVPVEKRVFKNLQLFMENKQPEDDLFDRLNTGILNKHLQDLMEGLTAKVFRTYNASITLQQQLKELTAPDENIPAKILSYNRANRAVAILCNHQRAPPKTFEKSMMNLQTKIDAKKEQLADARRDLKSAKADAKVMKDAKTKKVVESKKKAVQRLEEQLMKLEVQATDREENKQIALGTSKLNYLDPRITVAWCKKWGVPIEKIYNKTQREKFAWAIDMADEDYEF
Briefly: Human Topoisomerase I relaxation high-throughput plate assay (fluorescent DNA stain). In kind it is biochemical.

In test [1] the test system is nicked decamer 2B (DNA, duplex, nick between T5 and G6) GCGTT/GTCGC/GCGACAACGC
Briefly: MALDI-ToF MS. Particulars: covalent; alkylated product m/z 7296.2 in reaction mother liquor.

The test system is the same in test [2]. Kind of test: NOESY/TOCSY NMR. Particulars: 25 mM NaCl, 25 mM K3PO4; D2O, pH 6, 298 K; stacking at the nick, intermolecular NOEs.
Test [3] shares this test system. Briefly: DOSY NMR diffusion. Particulars: 25 mM NaCl, 25 mM K3PO4; D2O, pH 6, 298 K; 0.33 mM each; single-point from diffusion coefficients.

IC50, binding and Ka data for 2 compounds are collected here from PMC9612166 (Molecules, 2022).

The structures appear in SMILES notation. Where two headings read alike, the source gives them in different places.

On to `CCc1c2c(nc3ccc(O)cc13)-c1cc3c(c(=O)n1C2)COC(=O)[C@]3(O)CC` [SN38, reference compound], for which the IC50 on human Topo I (read-out: SN38) stood at 7.37 ± 7.1 µM.

For `CCc1c2c(nc3ccc(O)c(CNCCO)c13)-c1cc3c(c(=O)n1C2)COC(=O)[C@]3(O)CC` [compound 1, 7-ethyl-9-[N-(2′-hydroxyethyl)amino]methyl-10-hydroxycamptothecin], the binding result in test [1] and in test [2] was “yes” in each case. The IC50 against human Topo I came to 1.73 ± 0.48 µM. For the same compound, the Ka in test [3] is 746.0 mM⁻¹.
